# Reference: US8449898B2 (priority 2007, dated 2013)
# Read-outs that look alike come from different tables or passages of the source.
# Key:
# [1] = tested on: Phytophthora infestans (the causal agent of tomato late blight); experiment: whole plant or invertebrate; type: in vivo; details: for TLB Obsd (disease control rating): Table B; for TLB Obsd (observed effect, tomato late blight): component (b) alone; for TLB Obsd: Table D
# [2] = tested on: Pseudoperonospora cubensis (the causal agent of cucumber downy mildew); experiment: Test B: cucumber downy mildew, preventive spray on cucumber seedlings; type: in vivo; details: for CDM Obsd (disease control rating): Table B
# [3] = Pseudoperonospora cubensis, component (b) alone 0.4 ppm (Compound 1 0 ppm), read-out: CDM Obsd
# [4] = Pseudoperonospora cubensis, component (b) alone 2 ppm (Compound 1 0 ppm), read-out: CDM Obsd
# [5] = Pseudoperonospora cubensis, component (b) alone 10 ppm (Compound 1 0 ppm), read-out: CDM Obsd
# [6] = component (b) alone 10 ppm (Compound 1 0 ppm)
# [7] = component (b) alone 40 ppm (Compound 1 0 ppm)
smiles,measurement,setting,value
O=[N+]([O-])c1cc(C(F)(F)F)c(Cl)c([N+](=O)[O-])c1Nc1ncc(C(F)(F)F)cc1Cl [fluazinam],pest or weed control at 0.4 ppm,"[1]; Phytophthora infestans, read-out: TLB Obsd (disease control rating), Table C, component (b) alone 0.4 ppm",17%
same,pest or weed control at 2 ppm,"[1]; Phytophthora infestans, read-out: TLB Obsd (disease control rating), Table C, component (b) alone 2 ppm",40%
same,pest or weed control at 10 ppm,"[1]; Phytophthora infestans, read-out: TLB Obsd (disease control rating), Table C, component (b) alone 10 ppm",80%
same,pest or weed control at 40 ppm,"[1]; Phytophthora infestans, read-out: TLB Obsd (disease control rating), Table C, component (b) alone 40 ppm",98%
same,pest or weed control at 200 ppm,"[1]; Phytophthora infestans, read-out: TLB Obsd (disease control rating), Table C, component (b) alone 200 ppm",100%
same,pest or weed control at 0.04 ppm,"[1]; Phytophthora infestans, read-out: TLB Obsd (observed effect, tomato late blight), component (b) alone, 0.04 ppm",23%
same,pest or weed control at 2 ppm,"[1]; Phytophthora infestans, read-out: TLB Obsd (observed effect, tomato late blight), component (b) alone, 2 ppm",71%
same,pest or weed control at 10 ppm,"[1]; Phytophthora infestans, read-out: TLB Obsd (observed effect, tomato late blight), component (b) alone, 10 ppm",99%
same,pest or weed control at 40 ppm,"[1]; Phytophthora infestans, read-out: TLB Obsd (observed effect, tomato late blight), component (b) alone, 40 ppm",99%
same,pest or weed control at 200 ppm,"[1]; Phytophthora infestans, read-out: TLB Obsd (observed effect, tomato late blight), component (b) alone, 200 ppm",100%
same,pest or weed control at 0.4 ppm,"[2]; Pseudoperonospora cubensis, Table C, component (b) alone 0.4 ppm, read-out: CDM Obsd (disease control rating)",57%
same,pest or weed control at 2 ppm,"[2]; Pseudoperonospora cubensis, Table C, component (b) alone 2 ppm, read-out: CDM Obsd (disease control rating)",60%
same,pest or weed control at 10 ppm,"[2]; Pseudoperonospora cubensis, Table C, component (b) alone 10 ppm, read-out: CDM Obsd (disease control rating)",91%
same,pest or weed control at 40 ppm,"[2]; Pseudoperonospora cubensis, Table C, component (b) alone 40 ppm, read-out: CDM Obsd (disease control rating)",100%
same,pest or weed control at 200 ppm,"[2]; Pseudoperonospora cubensis, Table C, component (b) alone 200 ppm, read-out: CDM Obsd (disease control rating)",100%
same,pest or weed control at 0.4 µg/mL,[2]; [3],47%
same,pest or weed control at 2 µg/mL,[2]; [4],57%
same,pest or weed control at 10 µg/mL,[2]; [5],92%
same,pest or weed control at 40 µg/mL,"[2]; Pseudoperonospora cubensis, component (b) alone 40 ppm (Compound 1 0 ppm), read-out: CDM Obsd",100%
same,pest or weed control at 200 µg/mL,"[2]; Pseudoperonospora cubensis, component (b) alone 200 ppm (Compound 1 0 ppm), read-out: CDM Obsd",100%
same,pest or weed control at 0.04 ppm,"[2]; Pseudoperonospora cubensis, component (b) alone, 0.04 ppm, read-out: CDM Obsd (observed effect, cucumber downy mildew)",56%
same,pest or weed control at 2 ppm,"[2]; Pseudoperonospora cubensis, component (b) alone, 2 ppm, read-out: CDM Obsd (observed effect, cucumber downy mildew)",89%
same,pest or weed control at 10 ppm,"[2]; Pseudoperonospora cubensis, component (b) alone, 10 ppm, read-out: CDM Obsd (observed effect, cucumber downy mildew)",98%
same,pest or weed control at 40 ppm,"[2]; Pseudoperonospora cubensis, component (b) alone, 40 ppm, read-out: CDM Obsd (observed effect, cucumber downy mildew)",100%
same,pest or weed control at 200 ppm,"[2]; Pseudoperonospora cubensis, component (b) alone, 200 ppm, read-out: CDM Obsd (observed effect, cucumber downy mildew)",100%
CO/C=C(/C(=O)OC)c1ccccc1Oc1cc(Oc2ccccc2C#N)ncn1 [azoxystrobin],TLB Obsd (disease control rating),[1]; component (b) alone 0.08 ppm,0%
same,TLB Obsd (disease control rating),[1]; component (b) alone 0.4 ppm,16%
same,TLB Obsd (disease control rating),[1]; component (b) alone 2 ppm,26%
same,TLB Obsd (disease control rating),[1]; component (b) alone 10 ppm,58%
same,TLB Obsd (disease control rating),[1]; component (b) alone 40 ppm,99%
same,"TLB Obsd (observed effect, tomato late blight)",[1]; 0.4 ppm,29
same,"TLB Obsd (observed effect, tomato late blight)",[1]; 2 ppm,56
same,"TLB Obsd (observed effect, tomato late blight)",[1]; 10 ppm,90
same,"TLB Obsd (observed effect, tomato late blight)",[1]; 40 ppm,100
same,CDM Obsd (disease control rating),[2]; component (b) alone 0.08 ppm,64%
same,CDM Obsd (disease control rating),[2]; component (b) alone 0.4 ppm,80%
same,CDM Obsd (disease control rating),[2]; component (b) alone 2 ppm,100%
same,CDM Obsd (disease control rating),[2]; component (b) alone 10 ppm,100%
same,CDM Obsd (disease control rating),[2]; component (b) alone 40 ppm,100%
same,CDM Obsd,[2]; component (b) alone 0.08 ppm (Compound 1 0 ppm),26%
same,CDM Obsd,[2]; component (b) alone 0.4 ppm (Compound 1 0 ppm),40%
same,CDM Obsd,[2]; component (b) alone 2 ppm (Compound 1 0 ppm),100%
same,CDM Obsd,[2]; [6],100%
same,CDM Obsd,[2]; [7],100%
same,"CDM Obsd (observed effect, cucumber downy mildew)","[2]; component (b) alone, 0.4 ppm",0
same,"CDM Obsd (observed effect, cucumber downy mildew)","[2]; component (b) alone, 2 ppm",70
same,"CDM Obsd (observed effect, cucumber downy mildew)","[2]; component (b) alone, 10 ppm",100
same,"CDM Obsd (observed effect, cucumber downy mildew)","[2]; component (b) alone, 40 ppm",100
Cc1ccc(-c2c(Cl)nc(C#N)n2S(=O)(=O)N(C)C)cc1 [cyazofamid],pest or weed control at 0.016 ppm,"[1]; Phytophthora infestans, read-out: TLB Obsd, component (b) alone, 0.016 ppm",25%
same,pest or weed control at 0.08 ppm,"[1]; Phytophthora infestans, read-out: TLB Obsd, component (b) alone, 0.08 ppm",52%
same,pest or weed control at 0.4 ppm,"[1]; Phytophthora infestans, read-out: TLB Obsd, component (b) alone, 0.4 ppm",58%
same,pest or weed control at 2 ppm,"[1]; Phytophthora infestans, read-out: TLB Obsd, component (b) alone, 2 ppm",100%
same,pest or weed control at 10 ppm,"[1]; Phytophthora infestans, read-out: TLB Obsd, component (b) alone, 10 ppm",100%
same,pest or weed control at 0.016 µg/mL,"[2]; Pseudoperonospora cubensis, component (b) alone 0.016 ppm (Compound 1 0 ppm), read-out: CDM Obsd",47%
same,pest or weed control at 0.08 µg/mL,"[2]; Pseudoperonospora cubensis, component (b) alone 0.08 ppm (Compound 1 0 ppm), read-out: CDM Obsd",100%
same,pest or weed control at 0.4 µg/mL,[2]; [3],100%
same,pest or weed control at 2 µg/mL,[2]; [4],100%
same,pest or weed control at 10 µg/mL,[2]; [5],100%
same,pest or weed control at 0.016 ppm,"[2]; Pseudoperonospora cubensis, component (b) alone, 0.016 ppm, read-out: CDM Obsd",43%
same,pest or weed control at 0.08 ppm,"[2]; Pseudoperonospora cubensis, component (b) alone, 0.08 ppm, read-out: CDM Obsd",57%
same,pest or weed control at 0.4 ppm,"[2]; Pseudoperonospora cubensis, component (b) alone, 0.4 ppm, read-out: CDM Obsd",100%
same,pest or weed control at 2 ppm,"[2]; Pseudoperonospora cubensis, component (b) alone, 2 ppm, read-out: CDM Obsd",100%
same,pest or weed control at 10 ppm,"[2]; Pseudoperonospora cubensis, component (b) alone, 10 ppm, read-out: CDM Obsd",100%
CCO[PH](=O)O [fosetyl-aluminum],TLB Obsd,[1]; component (b) alone at 10 ppm,0%
same,TLB Obsd,[1]; component (b) alone at 40 ppm,20%
same,TLB Obsd,[1]; component (b) alone at 200 ppm,65%
same,TLB Obsd,[1]; component (b) alone at 1000 ppm,97%
same,TLB Obsd,[1]; component (b) alone at 2000 ppm,100%
same,"TLB Obsd (observed effect, tomato late blight)",[1]; 10 ppm,0
same,"TLB Obsd (observed effect, tomato late blight)",[1]; 40 ppm,0
same,"TLB Obsd (observed effect, tomato late blight)",[1]; 200 ppm,50
same,"TLB Obsd (observed effect, tomato late blight)",[1]; 1000 ppm,99
same,"TLB Obsd (observed effect, tomato late blight)",[1]; 2000 ppm,100
same,CDM Obsd,"[2]; Table D, component (b) alone at 10 ppm",47%
same,CDM Obsd,"[2]; Table D, component (b) alone at 40 ppm",47%
same,CDM Obsd,"[2]; Table D, component (b) alone at 200 ppm",47%
same,CDM Obsd,"[2]; Table D, component (b) alone at 1000 ppm",98%
same,CDM Obsd,"[2]; Table D, component (b) alone at 2000 ppm",100%
same,CDM Obsd,[2]; [6],47%
same,CDM Obsd,[2]; [7],47%
same,CDM Obsd,[2]; component (b) alone 200 ppm (Compound 1 0 ppm),63%
same,CDM Obsd,[2]; component (b) alone 1000 ppm (Compound 1 0 ppm),98%
same,CDM Obsd,[2]; component (b) alone 2000 ppm (Compound 1 0 ppm),100%
same,"CDM Obsd (observed effect, cucumber downy mildew)","[2]; component (b) alone, 10 ppm",0
same,"CDM Obsd (observed effect, cucumber downy mildew)","[2]; component (b) alone, 40 ppm",0
same,"CDM Obsd (observed effect, cucumber downy mildew)","[2]; component (b) alone, 200 ppm",0
same,"CDM Obsd (observed effect, cucumber downy mildew)","[2]; component (b) alone, 1000 ppm",68
same,"CDM Obsd (observed effect, cucumber downy mildew)","[2]; component (b) alone, 2000 ppm",73
